Patent US20200022963A1, “PHARMACEUTICAL COMPOSITION COMPRISING BETAHISTINE” (Otolanum AG, priority 2017, published 2020)
Where two headings read alike, the source gives them in different places.

Assay: Pharmacokinetic profile after single oral, intranasal and intravenous betahistine in beagle dogs, Example 5
Assay type: in vivo
Conditions: dog; for concentration at 0 h / concentration at 5 min / concentration at 0.167 h / concentration at 0.333 h / concentration at 0.5 h / concentration at 1 h / concentration at 2 h / concentration at 3 h / concentration at 6 h / concentration at 24 h: Betahistine Plasma Concentration
Procedure: In this study, the pharmacokinetic profile of betahistine was evaluated after a single dose administration of betahistine in male and female beagle dogs (age 5-7 months; weight of 5-11 kg, within a range of 3 kg for each sex) for three routes of administration: oral, intranasal, and intravenous.
On Day 1 of the study, betahistine (BH) was delivered orally at a dose of 12 mg/kg, 24 mg/kg, or 48 mg/kg. Each treatment group comprised 8 animals (4 males and 4 females). For pharmacokinetic assessment, plasma samples were collected prior to dosing, and then at 5, 10, 20 and 30 min, 1, 2, 3, 6, 24 hours after dosing.
On Day 8 of the study, the animals that received oral BH at a dose of 12 mg/kg were administered the test betahistine composition intranasally at a dose of 40 mg betahistine dihydrochloride; the animals that received oral BH at a dose of 24 mg/kg were administered the test betahistine composition intranasally at a dose of 80 mg betahistine dihydrochloride; and the animals that received oral BH at a dose of 48 mg/kg were administered the test betahistine composition intranasally at a dose of 120 mg betahistine dihydrochloride. The test betahistine composition was delivered intranasally in a single dose via an Aptar nasal spray pump device at a total dose level of 40, 80 and 120 mg of betahistine dihydrochloride. Plasma samples were collected prior to dosing, and then at 5, 10, 20 and 30 min, 1, 2, 3, 6, 24 hours after dosing.
On Day 15 of the study, the animals that received oral BH at a dose of 12 mg/kg and the test betahistine composition intranasally at a dose of 40 mg betahistine dihydrochloride were administered a bolus intravenous injection of betahistine at a dose of 0.44 mg/kg. Plasma samples were collected prior to dosing, and then at 5, 10, 20 and 30 min, 1, 2, 3, 6, 24 hours after dosing.
Betahistine 13CD3 dihydrochloride and 2-pyridylacetic acid-D4 hydrochloride were used as respective internal standards. The calibration range for betahistine was 0.05-250 ng/mL and for 2-PAA 2.00-3000 ng/mL using a plasma sample volume of 0.50 mL.
For determination of betahistine, the method involved liquid-liquid extraction, for 2-PAA, the method involved protein precipitation. Plasma samples were prepared for betahistine by extraction under basic conditions with an organic solvent, then the organic phase was dried, reconstituted and transferred for LC/MS-MS analysis. […] Sample analysis was performed using reversed phase chromatography.

[1] = both sexes, beagle, in vivo, iv, 0.44 mg/kg
[2] = both sexes, beagle, in vivo, po, 12 mg/kg
[3] = both sexes, beagle, in vivo, po, 24 mg/kg
[4] = both sexes, beagle, in vivo, po, 48 mg/kg
[5] = female, beagle, in vivo, inhaled or intranasal, 6 mg/kg
[6] = female, beagle, in vivo, inhaled or intranasal, 13 mg/kg
[7] = female, beagle, in vivo, inhaled or intranasal, 17.7 mg/kg
[8] = female, beagle, in vivo, iv, 0.44 mg/kg
[9] = female, beagle, in vivo, po, 12 mg/kg
[10] = female, beagle, in vivo, po, 24 mg/kg

CNCCc1ccccn1 [betahistine]
Cmax (beagle, in vivo, oral BH 48 mg/kg, male, Day 1, read-out: Cmax): 102 ± 30.2 ng/mL
concentration at 0 h [1]: 0.0825 ng/mL
concentration at 5 min [1]: 50.9 ng/mL
concentration at 0.167 h [1]: 22 ng/mL
concentration at 0.333 h [1]: 7.03 ng/mL
concentration at 0.5 h [1]: 4.82 ng/mL
concentration at 1 h [1]: 0.308 ng/mL
concentration at 2 h [1]: 0.633 ng/mL
concentration at 3 h [1]: 0.0878 ng/mL
concentration at 6 h [1]: 0.849 ng/mL
concentration at 24 h [1]: 0.202 ng/mL
concentration at 0 h [2]: 0 ng/mL
concentration at 5 min [2]: 1.97 ng/mL
concentration at 0.167 h [2]: 4.6 ng/mL
concentration at 0.333 h [2]: 7.96 ng/mL
concentration at 0.5 h [2]: 13.4 ng/mL
concentration at 1 h [2]: 9.86 ng/mL
concentration at 2 h [2]: 0.36 ng/mL
concentration at 3 h [2]: 0.0181 ng/mL
concentration at 6 h [2]: 0.00797 ng/mL
concentration at 24 h [2]: 0.0105 ng/mL
concentration at 0 h [3]: 0 ng/mL
concentration at 5 min [3]: 5 ng/mL
concentration at 0.167 h [3]: 5.15 ng/mL
concentration at 0.333 h [3]: 15.5 ng/mL
concentration at 0.5 h [3]: 14.9 ng/mL
concentration at 1 h [3]: 31.9 ng/mL
concentration at 2 h [3]: 2.83 ng/mL
concentration at 3 h [3]: 1.16 ng/mL
concentration at 6 h [3]: 0.21 ng/mL
concentration at 24 h [3]: 0 ng/mL
concentration at 0 h [4]: 0 ng/mL
concentration at 5 min [4]: 12.1 ng/mL
concentration at 0.167 h [4]: 22.5 ng/mL
concentration at 0.333 h [4]: 12.9 ng/mL
concentration at 0.5 h [4]: 26.5 ng/mL
concentration at 1 h [4]: 56.5 ng/mL
concentration at 2 h [4]: 21.5 ng/mL
concentration at 3 h [4]: 6.57 ng/mL
concentration at 6 h [4]: 0.439 ng/mL
concentration at 24 h [4]: 0 ng/mL
AUC(0-t) (both sexes, beagle, in vivo, IV bolus BH 0.44 mg/kg, sex-combined, Day 15, read-out: AUC(0-t)): 23 ng·h/mL
Absolute Bioavailability (% F), AUC(0-t)/D (oral 24 mg/kg vs IV bolus 0.44 mg/kg, sex-combined): 3.01%
AUC(0-t)/D [5]: 30.2 ± 9.31 hr*ng/mL/(mg/kg)
Cmax [5]: 770 ng/mL
Cmax/D [5]: 128 ± 42.1 ng/mL/(mg/kg)
Intranasal AUC/dose [5]: 30.2 (h · ng/mL)/(mg/kg)
Tmax [5]: 4.8 min
AUC(0-t) (female, beagle, in vivo, inhaled or intranasal, 6 mg/kg, AUC(0-6)): 180 ± 57.3 ng·h/mL
AUC(0-t) (female, beagle, in vivo, inhaled or intranasal, 6 mg/kg, AUC(0-t)): 181 ± 55.8 ng·h/mL
AUC(0-inf) [6]: 480 ± 336 ng·h/mL
AUC(0-t)/D [6]: 33.8 ± 21.8 hr*ng/mL/(mg/kg)
Cmax [6]: 1790 ng/mL
Cmax/D [6]: 138 ± 102 ng/mL/(mg/kg)
Intranasal AUC/dose [6]: 33.8 (h · ng/mL)/(mg/kg)
Tmax [6]: 8.4 min
AUC(0-t) (female, beagle, in vivo, inhaled or intranasal, 13 mg/kg, AUC(0-6)): 432 ± 281 ng·h/mL
AUC(0-t) (female, beagle, in vivo, inhaled or intranasal, 13 mg/kg, AUC(0-t)): 440 ± 283 ng·h/mL
AUC(0-inf) [7]: 302 ng·h/mL
AUC(0-t)/D [7]: 16.4 ± 0.479 hr*ng/mL/(mg/kg)
Cmax [7]: 1330 ng/mL
Cmax/D [7]: 75.1 ± 17.0 ng/mL/(mg/kg)
Intranasal AUC/dose [7]: 16.4 (h · ng/mL)/(mg/kg)
Tmax [7]: 4.8 min
AUC(0-t) (female, beagle, in vivo, inhaled or intranasal, 17.7 mg/kg, AUC(0-6)): 277 ± 7.99 ng·h/mL
AUC(0-t) (female, beagle, in vivo, inhaled or intranasal, 17.7 mg/kg, AUC(0-t)): 290 ± 8.47 ng·h/mL
AUC(0-inf) [8]: 14.3 ng·h/mL
AUC(0-t)/D [8]: 60.3 ± 40.0 hr*ng/mL/(mg/kg)
Cmax [8]: 43.7 ng/mL
Cmax/D [8]: 99.3 ng/mL/(mg/kg)
Tmax [8]: 5.4 min
Vd [8]: 10.6 L/kg
clearance [8]: 513 mL/min/kg
half-life [8]: 14.3 min
AUC(0-t) (female, beagle, in vivo, iv, 0.44 mg/kg, AUC(0-6)): 16.3 ng·h/mL
AUC(0-t) (female, beagle, in vivo, iv, 0.44 mg/kg, AUC(0-t)): 26.5 ng·h/mL
concentration at 0 h [8]: 0.0551 ng/mL
concentration at 5 min [8]: 43.7 ng/mL
concentration at 0.167 h [8]: 14.8 ng/mL
concentration at 0.333 h [8]: 6 ng/mL
concentration at 0.5 h [8]: 4.06 ng/mL
concentration at 1 h [8]: 0.268 ng/mL
concentration at 2 h [8]: 0.274 ng/mL
concentration at 3 h [8]: 0.095 ng/mL
concentration at 6 h [8]: 0.648 ng/mL
concentration at 24 h [8]: 0.405 ng/mL
AUC(0-6)/D [9]: 1.33 ± 0.483 hr*ng/mL/(mg/kg)
Cmax [9]: 14.7 ± 4.56 ng/mL
Cmax/D [9]: 1.22 ± 0.380 ng/mL/(mg/kg)
Oral AUC/dose [9]: 1.33 (h · ng/mL)/(mg/kg)
Tmax [9]: 60 min
AUC(0-t) (female, beagle, in vivo, po, 12 mg/kg, AUC(0-t)): 15.9 ± 5.8 ng·h/mL
concentration at 0 h [9]: 0 ng/mL
concentration at 5 min [9]: 2.59 ng/mL
concentration at 0.167 h [9]: 6.46 ng/mL
concentration at 0.333 h [9]: 10.1 ng/mL
concentration at 0.5 h [9]: 7.8 ng/mL
concentration at 1 h [9]: 14.1 ng/mL
concentration at 2 h [9]: 0.263 ng/mL
concentration at 3 h [9]: 0 ng/mL
concentration at 6 h [9]: 0 ng/mL
concentration at 24 h [9]: 0 ng/mL
AUC(0-6)/D [10]: 1.71 ± 0.748 hr*ng/mL/(mg/kg)
AUC(0-inf) [10]: 27.7 ng·h/mL
Cmax [10]: 38 ± 26.1 ng/mL
Cmax/D [10]: 1.58 ± 1.09 ng/mL/(mg/kg)
Oral AUC/dose [10]: 1.71 (h · ng/mL)/(mg/kg)
Tmax [10]: 60 min
half-life [10]: 84.6 min
AUC(0-t) (female, beagle, in vivo, po, 24 mg/kg, AUC(0-6)): 26.2 ng·h/mL
AUC(0-t) (female, beagle, in vivo, po, 24 mg/kg, AUC(0-t)): 41 ± 17.9 ng·h/mL
concentration at 0 h [10]: 0 ng/mL
concentration at 5 min [10]: 5.32 ng/mL
concentration at 0.167 h [10]: 5.24 ng/mL
concentration at 0.333 h [10]: 7.13 ng/mL
concentration at 0.5 h [10]: 12 ng/mL
concentration at 1 h [10]: 36.8 ng/mL
concentration at 2 h [10]: 3.58 ng/mL
concentration at 3 h [10]: 1.71 ng/mL
